Data from a melting point compilation (Tetko et al.; mined from patent text by program, amines drawn as free bases though some values may be those of a salt).

First: COC(=O)c1cccc(F)c1S(C)(=O)=O
Second: COC(=O)c1ccccc1S(=O)(=O)NC(=O)Nc1nc(Cl)cn(C)c1=O
The melting point of the first is lower: 116 °C for the first, 213 to 214 °C for the second.

Compared with `CCCOc1cc(C(=O)O)cc(N)c1Cc1ccccc1`, `CCOC(=O)c1cc(OCc2ccccc2)c2nc(C3CC3)n(C)c2c1` is lower in melting point: 161 to 162 °C for the first, 120 °C for the second.

Compared with `CCNc1nc2ccc(CCc3ncc[nH]3)cc2o1`, `COc1c(Cl)ncnc1OCCc1ccc(Cl)cc1` is lower in melting point: 204 to 206 °C for the first, 70 to 71 °C for the second.

First: CCCc1cc2c(cc1C(=O)c1ccc(C(O)=NO)cc1)C(C)(C)CCC2(C)C
Second: O=C(O)CCc1c[nH]c2c(C(=O)c3ccc(Cl)cc3)cccc12
The melting point of the first is higher: 255 to 257 °C for the first, 190 to 202 °C for the second.

First: O=c1c(Cc2ccccc2)c(-c2ncco2)n(-c2ccccc2)c2cc(Cl)ccc12
Second: COC(=O)CCc1ccc(OCCC2Oc3ccccc3N(Cc3cccc(Cl)c3)C2=O)cc1 (centres undefined)
The melting point of the first is higher: 219 to 220 °C for the first, 88 to 89 °C for the second.

First: O=C(O)c1ccc2c(=O)n3c(nc2c1)C(=Cc1ccccc1)CC3
Second: O=C1C=C(O)C(=O)c2cc(-c3ccccc3)ccc21
The melting point of the first is higher: 382 to 384 °C for the first, 190 to 192 °C for the second.

Compared with `CC(C)C[C@H](NC(=O)c1cccc(Cl)c1)C(=O)N[C@@H](C(C)C)[C@@H](O)c1c(-c2ccccc2)c1=O`, `CC(C)C(=O)Oc1cccc2c(-c3ccccc3)c3cccc(OC(=O)C(C)C)c3c(OC(=O)C(C)C)c12` is higher in melting point: 179 °C for the first, 224 °C for the second.

Compared with `CNC(=C[N+](=O)[O-])NCCSCc1cc(CN2CCCC2)cs1`, `Cc1cc(C)c(N2CCCCC2=S)c(Cl)c1` is higher in melting point: 109 to 111 °C for the first, 147 to 148 °C for the second.

`O=S(=O)(N=CN1CCOCC1)c1cc(Br)cc(Br)c1` and `CCCn1c(COCC)nc2c(N)nc3ccc(OCC(=O)N4CCOCC4)cc3c21` cannot be ordered by melting point: 195 to 197 °C for the first, 196 to 197 °C for the second.

First: Cc1ccc(NC(=O)Cc2ccccc2C(=O)O)cc1/C=C/c1nc(C(C)C)cs1
Second: Cc1cc(C(=O)Oc2ccccc2)c(O)c2ccccc12
The melting point of the first is higher: 181 to 183 °C for the first, 76 to 77 °C for the second.

First: CCOCc1nc2c(N)nc3ccccc3c2n1CCCC(=O)N(C)OC
Second: CCCCCCc1nc2cnc3ccccc3c2n1CCCCNS(=O)(=O)c1ccccc1
The melting point of the first is higher: 163 to 165 °C for the first, 137 to 138 °C for the second.

First: CC(=O)Oc1ccc(-c2cnc(N)c(Cc3ccccc3)n2)cc1
Second: Cc1oc(-c2ccccc2)nc1CCOc1ccc(C=C2SC(=O)NC2=O)cc1
The melting point of the first is lower: 184 to 186 °C for the first, 213 to 214 °C for the second.

Compared with `O=C(O)COc1ccc(SCc2ccc(OC3CCc4cc(Cl)ccc43)cc2)c2c1CCC2` (centres undefined), `COC(=O)c1ccc(Cn2ccn(C3CCc4ccccc4C3)c2=S)cc1` (centres undefined) is lower in melting point: 169 to 170 °C for the first, 133 to 135 °C for the second.

First: CC(=O)NC[C@H]1CN(c2ccc(N3CCC4(CCOCCO4)CC3)c(F)c2)C(=O)O1
Second: CC(C)(C)OC(=O)Nc1cc(N2CCOC2=O)c(-c2ccc(F)cc2)cc1[N+](=O)[O-]
The melting point of the first is lower: 182 to 184 °C for the first, 201 °C for the second.

First: CCOC(=O)c1sc(Oc2ccc(F)cc2)c2c1CCc1cnn(C)c1-2
Second: COc1ccc2[nH]c(SCc3ncc(F)c(N4CCOCC4)c3C)nc2c1
The melting point of the first is higher: 94 to 95 °C for the first, 84 to 86 °C for the second.

First: Cc1cn(Nc2cccc(Cl)c2)c(=S)n1-c1ccc(Br)cc1
Second: CCOC(=O)NC(=N)c1ccc(-n2cc(C)n(-c3ccc(CCC(=O)OC)cc3)c2=O)cc1
The melting point of the first is higher: 220 °C for the first, 198 to 199 °C for the second.

Compared with `C[C@@H]1Nc2ccc(-c3cc(F)cc(C#N)c3)cc2[C@](C)(c2ccccc2)O1`, `N#Cc1ccnc(C2=NC(c3ccc(F)cc3)(c3ccc(F)cc3)CN2)c1` is higher in melting point: 128 to 129 °C for the first, 206 to 208 °C for the second.

Compared with `CC(C(=O)OC(C)(C)C)c1ccc(N2Cc3ccc(Br)cc3C2=O)cc1` (centres undefined), `CC(C)(C)c1ccc(-c2ccc(C(C)(C)C)c(O)c2)cc1` is lower in melting point: 164 to 165 °C for the first, 86 to 87 °C for the second.

First: NC(=O)CNC(=O)COC[C@@H]1CCCN1C(=O)OCc1ccccc1
Second: CCOC(=O)N1CCC(NC(=S)Nc2cc(Cl)ccc2NCc2ccccc2)CC1
The melting point of the first is lower: 110 to 111 °C for the first, 162 °C for the second.

First: CNC(=O)C(Cc1ccc(F)cc1)NC(=O)Nc1n[nH]c(=S)s1 (centres undefined)
Second: CC(C)C[C@@H](CO)NC(=O)[C@@H](O)[C@@H](Cc1ccc(S(C)(=O)=O)cc1)NC(=O)OCc1ccccc1
The melting point of the first is higher: 225 to 227 °C for the first, 165 to 173 °C for the second.

First: O=C(c1ccc(I)cc1)C1(c2ccccc2F)CO1 (centres undefined)
Second: CS(=O)(=O)Nc1cc(O)ccc1Oc1ccccc1
The melting point of the first is lower: 75 to 76 °C for the first, 138 to 140 °C for the second.

Compared with `O=C1CCC(N2Cc3c(NCc4ccco4)cccc3C2=O)C(=O)N1` (centres undefined), `NCCNc1cc(-n2cccn2)nc(-c2ccco2)n1` is lower in melting point: 248 to 250 °C for the first, 104 to 105 °C for the second.

`CCCNC(=O)N(CCC(=O)OC)CC1CC2c3cccc4[nH]cc(c34)CC2N(C)C1` (centres undefined) and `CCCC(=O)OC1CC(n2cc(CC)c(=O)[nH]c2=O)OC1CNC(=O)Cc1c(Cl)cccc1Cl` (centres undefined) fall in the same range of melting point: 130 to 132 °C for the first, 130 to 132 °C for the second.

Compared with `COc1cccc(N=C(NC#N)Oc2ccccc2)c1`, `COC(=O)COc1ccc(C(=O)CBr)c2ccccc12` is lower in melting point: 170 to 171 °C for the first, 99 to 101 °C for the second.

First: COc1c(C)cc(N)c(CS(=O)c2nc3ccccc3[nH]2)c1C (centres undefined)
Second: O=S(=O)(c1ccccc1)c1c[nH]c2ccc(CCO)cc12
The melting point of the first is higher: 150 to 155 °C for the first, 55 to 60 °C for the second.

Compared with `OC1CSC(Oc2cccnc2Br)C(O)C1O` (centres undefined), `COc1cc2ncc(OC3CC4CC3C(O)C4O)nc2cc1OC` (centres undefined) is lower in melting point: 151 °C for the first, 85 to 88 °C for the second.

Compared with `Cc1ccc(-c2cnn(C)c2)cc1`, `C=CC(C)(C)C(O)(COc1ccc(-c2ccccc2)cc1)Cn1ccnc1` (centres undefined) is higher in melting point: 107 to 108 °C for the first, 151 to 153 °C for the second.

First: CN1CCN(c2ccc(Nc3ncc4ccc(-c5ccc(S(C)(=O)=O)cc5)n4n3)cc2)CC1
Second: CS(=O)(=O)c1ccc(-c2oc3ccc(F)cc3c(=O)c2-c2cccnc2)cc1
The melting point of the first is higher: 234 to 238 °C for the first, 177 to 178 °C for the second.

First: O=c1c2cc3nnn(C4CC4)c(=O)c3cc2ncn1CCn1ncnn1
Second: O=c1c2ccccc2ncn1CCN1CCC(c2c[nH]c3ccccc23)CC1
The melting point of the first is higher: 194 to 195 °C for the first, 90 °C for the second.

First: COc1ccc2cc(C(C)C(=O)OCC(=O)OCCO[N+](=O)[O-])ccc2c1 (centres undefined)
Second: COC(=O)COc1c(CCC(C)C)c(OC)cc(OC)c1C(=O)CCc1ccc(O)c(OC)c1
The melting point of the first is lower: 44 to 45 °C for the first, 89 to 90 °C for the second.

First: CN1C(=O)N(c2cc(Cl)cc(Cl)c2)C(=O)[C@]12CN(c1ccc(Cl)nn1)C[C@H]2c1ccc(C#N)cc1 (relative stereo)
Second: N#Cc1ccc(S(=O)(=O)N2CCn3c(c(C(N)=O)c(Cl)c3-c3ccccc3)C2)cc1
The melting point of the first is lower: 125 °C for the first, 205 to 206 °C for the second.

First: CCS(=O)(=O)N(C)C1CCCOc2ccccc21 (centres undefined)
Second: CO[C@H]1O[C@@H](C)[C@H]2[C@@H]1C[C@H]1CCCC[C@@H]1[C@H]2CS(=O)(=O)c1ccccc1
The melting point of the first is lower: 122 to 124 °C for the first, 136 to 137 °C for the second.

`CC(C)(C)OC(=O)N1CCO[C@@H](c2ccc(C#N)cc2)C1` and `N#Cc1ccc(CCN2CCC(NC(=O)C34CC5CC(CC(C5)C3)C4)C2)cc1` (centres undefined) cannot be ordered by melting point: 104 °C for the first, 104 to 105 °C for the second.

First: O=C(Nc1ccc(Cl)c(Cl)c1)O[C@H]1COC(c2ccccc2)=N[C@@H]1c1ccccc1 (racemic)
Second: CCCN(c1ccncc1)N1C(=O)C2(Cc3ccccc3C2)c2ccccc21
The melting point of the first is higher: 184 °C for the first, 159 to 161 °C for the second.

First: CCCNCC1Cc2ccc(-c3ccc(=O)[nH]n3)cc2C1 (centres undefined)
Second: CCCCN1C(=O)CC(C(=O)Nc2nccs2)C(=O)c2ccc(Cl)cc21 (centres undefined)
The melting point of the first is lower: 144 to 146 °C for the first, 238 to 240 °C for the second.

First: O=C(O)CCc1cccc(-c2nc(=O)c3ccc(Cl)cc3s2)n1
Second: O=c1c2cccnc2c(-c2cccc(Cl)c2)nn1Cc1ccsc1
The melting point of the first is higher: 224 to 225 °C for the first, 165 to 166 °C for the second.

First: Cc1cccc(C2(CNC(=O)Nc3c(C(C)C)cccc3C(C)C)CCC2)c1
Second: CCc1cc(NC(=O)c2ccc(OC)c(OC)c2)ccc1C(C)(C)CNC(C)=O
The melting point of the first is lower: 148 to 151 °C for the first, 203 to 206 °C for the second.

Compared with `CNS(=O)(=O)c1cc(C)oc1CC(=O)O`, `COc1ccc2c(c1)C(C)(CC(=O)O)C(=O)N2C` (centres undefined) is higher in melting point: 112 to 113 °C for the first, 120 to 121 °C for the second.

First: CC(C)(C)C(=O)OCOC(=O)c1cn(CC(F)(F)F)c2cc3c(cc2c1=O)OCO3
Second: CCOC(=O)c1sc(Br)c2c1OCO2
The melting point of the first is higher: 190 to 191 °C for the first, 93 °C for the second.

Compared with `CCCCOCCOc1ccc(-c2ccc3c(c2)C=C(C(=O)Nc2ccc(CC(=O)c4nccn4CCC)cc2)CCN3CC(C)C)cc1`, `COc1ccc(-c2nc(Sc3ccc(Cl)c(Cl)c3)[nH]c2-c2ccc(OC)cc2)cc1` is lower in melting point: 136 to 138 °C for the first, 113 to 115 °C for the second.

First: CCC(=O)c1cnc(C(=O)CC)cn1
Second: COc1ccc(/C=C/C(=O)C#CC(=O)O)cc1
The melting point of the first is higher: 112 °C for the first, 98 to 100 °C for the second.

First: COCc1cccc(COC)c1SSc1c(COC)cccc1COC
Second: COc1cc(CCCN2CCc3cc(OC)c(OC)cc3C2)ccc1NC(=O)c1cccc2c(=O)c3cccc(OC)c3[nH]c12
The melting point of the first is lower: 89 to 90 °C for the first, 188 °C for the second.

First: CC1CC2=CC(=O)CCC2C2C(F)CC3(C)C(O)CCC3C12 (centres undefined)
Second: CC1CN(c2ccc([N+](=O)[O-])cc2)CC(C)N1 (centres undefined)
The melting point of the first is higher: 127 °C for the first, 124 to 125 °C for the second.

Compared with `COCCOc1cc2ncnc(NC3=CC(=O)C(Oc4ccc(C)cc4)=CC3=O)c2cc1OC`, `COc1cc2c3ccc(OC)c(OC)c3n(S(=O)(=O)c3cc(Cl)ccc3Cl)c2cc1OC` is higher in melting point: 171 to 172 °C for the first, 221 to 224 °C for the second.

Compared with `CCc1nn(Cc2nnc(N)o2)c(CC)c1Oc1cc(Cl)cc(Cl)c1`, `Nc1nc(-c2ccncc2O)nc2c1c(C(F)(F)F)nn2C1CCCC1` is lower in melting point: 226 to 228 °C for the first, 187 to 190 °C for the second.

First: CC1(C)Cc2c(c(N3CCCC3)nc3sc4c(NCc5ccccn5)ncnc4c23)CO1
Second: c1ccc2c(c1)Cc1ccccc1N1CCCN=C21
The melting point of the first is higher: 249 to 251 °C for the first, 139 to 141 °C for the second.

First: Cc1c(CN(C)C)cc(C(C)(C)C)c(O)c1C
Second: CCCCCCCCCC[C@@H]1C(=O)OC(C)=C[C@@H]1C(=O)OC
The melting point of the first is higher: 101 to 104 °C for the first, 40 to 42 °C for the second.

First: CS(=O)(=O)OCCCCC1C(=O)Nc2ccccc21 (centres undefined)
Second: O[C@H]1C[C@H]2CN(C3=Nc4cc(Cl)ccc4Sc4ccccc43)CCN2C1
The melting point of the first is higher: 84 to 85 °C for the first, 58 to 60 °C for the second.

`Nc1onc2c1CCC2` and `Cc1cccc(Cl)c1N1CCCN(C(C)C)C1=S` cannot be ordered by melting point: 135 °C for the first, 135 to 136 °C for the second.

In the case of `OCC(O)CNc1ncnc2c1ncn2C1OC(CO)C(O)C1O` (centres undefined), the melting point is reported as 164 to 165 °C.
